Tests used:
[1] = system: human tumor-infiltrating lymphocytes (TIL); assay: Rapid Expansion Protocol (REP) of TIL; format: cell-based; conditions: day 42 (Pre-REP and REP)
Protocol: PBMC, OKT3 antibody (30 ng/mL), complete medium (“CM”), AIM V media (GIBCO/BRL), and TIL effector cells were combined, mixed, and aliquoted to a 75 cm^2 tissue culture flask. Flasks were incubated upright at 37° C. in 5% CO2. […] About 14 days after initiation of the REP, cells were harvested and cryopreserved for future experimental analysis.

[2] = system: human tumor-infiltrating lymphocytes (TIL); assay: Flow cytometry immunophenotyping of expanded TIL; format: cell-based; conditions: for CD4 TCM CD62L+ CCR7+, percentage of total TIL cell number / CD4 TEM CD62L− CCR7−, percentage of total TIL cell number / CD8 TCM CD62L+ CCR7−, percentage of total TIL cell number / CD8 TEM CD62L− CCR7−, percentage of total TIL cell number: TIL1 population, day 28
Protocol: The plates were placed in a humidified 37° C. incubator with 5% CO2. Half of the medium was replaced every two days after culture initiation. […] Subsequently, half the media was replaced thrice weekly, cultures were split to maintain a cell density of 1×10^6 cells/mL. […] Mitochondrial markers including, Mitotracker, Mitoprobe, and 2-NBDG may also be used to assess differentiation and/or activation of cells.
T lymphocytes were defined based on lineage and differentiation marker expression according to the developmental model (Restifo, Blood, 124:476-477, 2014), as shown in Table 4.

OT-1 cells = assay: Re-stimulation of harvested splenocytes with OVA Class I peptide; format: cell-based, mouse
Protocol: The expanded OT-1 cells were characterized by FACS analysis and transferred into E.G7-OVA mice, which bear ovalbumin (OVA) expressing tumors. Following in vivo transfer of expanded OT-1 cells, antitumor response was monitored over time and the quality and quantity of immune response was assessed at various time points. Analysis included FACS analysis on blood, tumor, and spleen samples. Analysis also included re-stimulation of splenocytes with OVA Class I peptide to evaluate the multifunctionality of the antigen-specific effector T cells.
Expanded OT-1 cells were assessed from splenocytes 11 days after transfer. Harvested splenocytes were re-stimulated with OVA Class I peptide for 72 hours.
Expanded OT-1 cells were assessed from splenocytes 11 days after transfer. Harvested splenocytes were re-stimulated with OVA Class I peptide for 4 hours.
Expanded OT-1 cells were assessed from splenocytes 11 days after transfer. Harvested splenocytes were re-stimulated with OVA Class I peptide for 24 hours.

[3] = system: TIL from human ovarian, colon and breast cancer tissues; assay: Phenotype of TIL expanded in 24 well or GREX10 format (flow cytometry); format: cell-based
Protocol: Initial studies involved TIL expansion with ovarian and CRC tumor tissues (average about 0.5-0.8 g). These were fragmented into multiple pieces (approximately 2 mm^3 in size), and one fragment was added per 24 well plate. […] The wells were then pooled by treatment and total cell numbers were assessed by flow cytometry. Following TIL expansion the phenotypes of the cells were characterized. They were majority CD45RO+ and CD4+ and CD8+.
TIL directly derived from fresh ovarian and colon cancer tissues (fresh, n=8) obtained after 28 days' ex vivo culture of cancer tissue fragments were analyzed by flow cytometry. FIG. 24 provides FACS data showing percentages of central memory(CD45RO+CCR7+) and effector memory (CD45RO+CCR7−) phenotype among CD8+CD45RO+, respectively. FACS results expressed as the mean±SEM. Statistical significance calculated using two-tailed Wilcoxon signed-rank test (*, p<0.05). The CD8 T cells were further characterized by assessing T cell differentiation phenotypic markers; CCR7 and CD45RO. […] This indicates the expansion of a less differentiated, persistent T cell.
TIL directly derived from fresh ovarian, colon and breast cancer tissues (fresh, n=7) obtained after 14 days' ex vivo culture of cancer tissue fragments were analyzed by flow cytometry. FIG. 26 provides FACS data showing percentages of central memory […] phenotype among CD8+CD45RO+, respectively. FACS results were expressed as the mean±SEM.

CD8+ and CD4+ TIL = assay: CD107a and granzyme B in TIL after anti-CD3/CD28 stimulation; format: cell-based, human
Protocol: In the context of cytotoxicity, granzyme B (Grb), a protease secreted to mediate apoptosis, was assessed.

[4] = Cbl inhibitor expanded, 4 hours restimulation
[5] = 6000 IU IL-2 + 1 uM compound 103, 28 days, 24 well
[6] = IL-2 + compound 103, upon stimulation
[7] = expanded with IL2 + compound 103, anti-CD3/CD28 6 hours

With `C[C@@H]1CN(Cc2cc3c(c(C(F)(F)F)c2)CN(c2cccc(C4(Cc5nncn5C)COC4)c2)C3=O)CCC1(F)F` [compound 103] the “Expansion of TIL (REP), total cell number relative to IL-2 alone” value ([1]; TIL1 (ovary), 0.1 μM Cbl-i) was 40%, the “Expansion of TIL (REP), total cell number relative to IL-2 alone” value ([1]; TIL1 (ovary), 1.0 μM Cbl-i) was 42% and the “Expansion of TIL (REP), total cell number relative to IL-2 alone” value ([1]; TIL1 (ovary), 10 μM Cbl-i) was 32%. The “Expansion of TIL (REP), total cell number relative to IL-2 alone” value ([1]; TIL1 (ovary), IL-2 + 0.1 μM Cbl-i) was 50%, the “Expansion of TIL (REP), total cell number relative to IL-2 alone” value ([1]; TIL1 (ovary), IL-2 + 1.0 μM Cbl-i) was 52% and the “Expansion of TIL (REP), total cell number relative to IL-2 alone” value ([1]; TIL1 (ovary), IL-2 + 10 μM Cbl-i) was 49%. For the same compound, the “Expansion of TIL (REP), total cell number relative to IL-2 alone” value ([1]; TIL3 (ovary), 0.1 μM Cbl-i) was 127%, the “Expansion of TIL (REP), total cell number relative to IL-2 alone” value ([1]; TIL3 (ovary), 1.0 μM Cbl-i) was 150% and the “Expansion of TIL (REP), total cell number relative to IL-2 alone” value ([1]; TIL3 (ovary), 10 μM Cbl-i) was 107%. For the same compound, the “Expansion of TIL (REP), total cell number relative to IL-2 alone” value ([1]; TIL3 (ovary), IL-2 + 0.1 μM Cbl-i) was 193%, the “Expansion of TIL (REP), total cell number relative to IL-2 alone” value ([1]; TIL3 (ovary), IL-2 + 1.0 μM Cbl-i) was 207% and the “Expansion of TIL (REP), total cell number relative to IL-2 alone” value ([1]; TIL3 (ovary), IL-2 + 10 μM Cbl-i) was 197%. The “Expansion of TIL (REP), total cell number relative to IL-2 alone” value ([1]; TIL4 (colon), 0.1 μM Cbl-i) was 80%, the “Expansion of TIL (REP), total cell number relative to IL-2 alone” value ([1]; TIL4 (colon), 1.0 μM Cbl-i) was 80% and the “Expansion of TIL (REP), total cell number relative to IL-2 alone” value ([1]; TIL4 (colon), 10 μM Cbl-i) was 107%. For the same compound, the “Expansion of TIL (REP), total cell number relative to IL-2 alone” value ([1]; TIL4 (colon), IL-2 + 0.1 μM Cbl-i) was 167%, the “Expansion of TIL (REP), total cell number relative to IL-2 alone” value ([1]; TIL4 (colon), IL-2 + 1.0 μM Cbl-i) was 194% and the “Expansion of TIL (REP), total cell number relative to IL-2 alone” value ([1]; TIL4 (colon), IL-2 + 10 μM Cbl-i) was 240%. For the same compound, the “Expansion of TIL (REP), total cell number relative to IL-2 alone” value ([1]; TIL6 (ovary), 0.1 μM Cbl-i) was 51%, the “Expansion of TIL (REP), total cell number relative to IL-2 alone” value ([1]; TIL6 (ovary), 1.0 μM Cbl-i) was 63% and the “Expansion of TIL (REP), total cell number relative to IL-2 alone” value ([1]; TIL6 (ovary), 10 μM Cbl-i) was 49%. The “Expansion of TIL (REP), total cell number relative to IL-2 alone” value ([1]; TIL6 (ovary), IL-2 + 0.1 μM Cbl-i) was 206%, the “Expansion of TIL (REP), total cell number relative to IL-2 alone” value ([1]; TIL6 (ovary), IL-2 + 1.0 μM Cbl-i) was 180% and the “Expansion of TIL (REP), total cell number relative to IL-2 alone” value ([1]; TIL6 (ovary), IL-2 + 10 μM Cbl-i) was 168%. The “CD4 TCM CD62L+ CCR7+, percentage of total TIL cell number” value (“CD4 TCM CD62L+ CCR7+, percentage” below) ([2]; 0.1 μM Cbl-i) was 2.8%, the “CD4 TEM CD62L− CCR7−, percentage of total TIL cell number” value (“CD4 TEM CD62L− CCR7−, percentage” below) ([2]; 0.1 μM Cbl-i) was 67.2% and the “CD8 TCM CD62L+ CCR7−, percentage of total TIL cell number” value (“CD8 TCM CD62L+ CCR7−, percentage” below) ([2]; 0.1 μM Cbl-i) was 19.5%. For the same compound, the “CD8 TEM CD62L− CCR7−, percentage of total TIL cell number” value (“CD8 TEM CD62L− CCR7−, percentage” below) ([2]; 0.1 μM Cbl-i) was 37.2%, the “CD4 TCM CD62L+ CCR7+, percentage” value ([2]; 1.0 μM Cbl-i) was 8.0% and the “CD4 TEM CD62L− CCR7−, percentage” value ([2]; 1.0 μM Cbl-i) was 24.2%. For the same compound, the “CD8 TCM CD62L+ CCR7−, percentage” value ([2]; 1.0 μM Cbl-i) was 20.2%, the “CD8 TEM CD62L− CCR7−, percentage” value ([2]; 1.0 μM Cbl-i) was 15.6% and the “CD4 TCM CD62L+ CCR7+, percentage” value ([2]; 10 μM Cbl-i) was 15.8%. The “CD4 TEM CD62L− CCR7−, percentage” value ([2]; 10 μM Cbl-i) was 66.7%, the “CD8 TCM CD62L+ CCR7−, percentage” value ([2]; 10 μM Cbl-i) was 29.7% and the “CD8 TEM CD62L− CCR7−, percentage” value ([2]; 10 μM Cbl-i) was 13.2%. The “CD4 TCM CD62L+ CCR7+, percentage” value ([2]; IL-2 + 0.1 μM Cbl-i) was 12.1%, the “CD4 TEM CD62L− CCR7−, percentage” value ([2]; IL-2 + 0.1 μM Cbl-i) was 49.3% and the “CD8 TCM CD62L+ CCR7−, percentage” value ([2]; IL-2 + 0.1 μM Cbl-i) was 20.3%. For the same compound, the “CD8 TEM CD62L− CCR7−, percentage” value ([2]; IL-2 + 0.1 μM Cbl-i) was 35.5%, the “CD4 TCM CD62L+ CCR7+, percentage” value ([2]; IL-2 + 1.0 μM Cbl-i) was 15.2% and the “CD4 TEM CD62L− CCR7−, percentage” value ([2]; IL-2 + 1.0 μM Cbl-i) was 57.3%. The “CD8 TCM CD62L+ CCR7−, percentage” value ([2]; IL-2 + 1.0 μM Cbl-i) was 16.5%, the “CD8 TEM CD62L− CCR7−, percentage” value ([2]; IL-2 + 1.0 μM Cbl-i) was 43.3% and the “CD4 TCM CD62L+ CCR7+, percentage” value ([2]; IL-2 + 10 μM Cbl-i) was 0%. For the same compound, the “CD4 TEM CD62L− CCR7−, percentage” value ([2]; IL-2 + 10 μM Cbl-i) was 55.8%, the “CD8 TCM CD62L+ CCR7−, percentage” value ([2]; IL-2 + 10 μM Cbl-i) was 20.5% and the “CD8 TEM CD62L− CCR7−, percentage” value ([2]; IL-2 + 10 μM Cbl-i) was 35.4%. For the same compound, the “Selective expansion of CD8+ T lymphocytes” value ([2]; malignant ovarian tumor sample, FIG. 7) was “selectively expand CD8+ T lymphocytes”, the “Exhaustion markers (PD1 and TIM3) in multifunctional cells vs IL-2 alone” value (OT-1 cells; [4]) was “lower level of expression of exhaustion markers” and the “Multifunctionality (IFN-gamma and TNF-alpha double positive cells) vs IL-2 alone” value (OT-1 cells; [4]) was “comparable multifunctionality”. The “IL-2 production upon restimulation” value (OT-1 cells; Cbl inhibitor expanded, 24 hours restimulation) was “increased IL-2 production upon restimulation”, the “Proliferation in response to peptide restimulation vs IL-2 alone” value (OT-1 cells; Cbl inhibitor expanded, splenocytes 11 days after transfer, 72 hours) was “superior intrinsic ability to proliferate” and the “Proliferation in response to peptide restimulation” value (OT-1 cells; expanded with Cbl inhibitor and IL-2, 72 hours) was “even greater intrinsic ability to proliferate”. The “% CD4 T cells vs IL-2 alone” value [3, 5] was “decrease in the % of CD4”, the “CD8 T cells vs IL-2 alone” value [3, 5] was “corresponding increase in CD8” and the “Central memory T cells (CCR7+CD45RO+) among CD8 vs IL-2 alone” value ([3]; IL-2 + compound 103, 28 days, FIG. 24) was “significant increase of central memory T cells”. For the same compound, the “CD8 T cell expansion (% and total numbers)” value ([3]; IL-2 + compound 103, GREX 10, 14 days) was “increased expansion of CD8 T cells”, the “CD107A+GRB+ cells” value (CD8+ and CD4+ TIL; [6]) was “significant increase” and the “Granzyme B (Grb) produced in TIL vs IL-2 alone” value (CD8+ and CD4+ TIL; [6]) was “significant increase of Grb”. For the same compound, the “CD4+ TIL capable of producing CD107a” value (CD8+ and CD4+ TIL; [7]) was “greater than 60%” and the “CD8+ TIL capable of producing CD107a” value (CD8+ and CD4+ TIL; [7]) was “greater than 60%”.
